Data set [1] is classed as physicochemical. The settings on record: pH 7.4. As for the experimental part: Lipophilicity (depicted as n-octanol-phosphate-buffered saline solution (PBS, pH = 7.4) distribution coefficient, logD7.4) of ^177Lu-labeled minigastrin analogs was evaluated as previously published.
The target of data set [2] is T1, CCK-2R (Rattus norvegicus, UniProt P30553).
T1 construct: endogenous in cells; host or cells: AR42J cells
T1 sequence (P30553 1-452): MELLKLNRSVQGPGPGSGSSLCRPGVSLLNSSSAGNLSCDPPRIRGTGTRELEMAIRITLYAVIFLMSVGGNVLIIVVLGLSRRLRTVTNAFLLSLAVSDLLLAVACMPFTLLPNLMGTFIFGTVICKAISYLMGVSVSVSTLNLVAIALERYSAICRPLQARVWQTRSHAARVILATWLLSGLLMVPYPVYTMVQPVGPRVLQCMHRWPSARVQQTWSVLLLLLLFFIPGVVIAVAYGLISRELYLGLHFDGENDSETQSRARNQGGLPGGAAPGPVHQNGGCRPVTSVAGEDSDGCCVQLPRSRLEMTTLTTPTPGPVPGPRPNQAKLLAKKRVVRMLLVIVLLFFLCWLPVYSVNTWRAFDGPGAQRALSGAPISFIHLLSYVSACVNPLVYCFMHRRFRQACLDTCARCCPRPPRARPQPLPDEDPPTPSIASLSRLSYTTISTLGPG
As to the kind of experiment: Competitive binding (IC50) on AR42J cells against [177Lu]Lu-DOTA-PP-F11N. The settings on record: AR42J cells; [177Lu]Lu-DOTA-PP-F11N as reference; 3 h, 37 °C; values in text; read-out: IC50 (CCK-2R affinity). The procedure:
IC50 values of all compounds were determined according to a previously published procedure. In brief, competitive binding studies were performed via co-incubation of increasing concentrations of the peptide of interest (10^−10 to 10^–4 M, in triplicate) together with the reference compound [^177Lu]Lu-DOTA-PP-F11N (0.3 pmol/well) on AR42J cells (2 × 10^5 cells per 1 mL/well) at 37 °C for 3 h. Table S1. CCK-2R affinity and lipophilicity data of the compounds evaluated. Affinity data were determined on AR42J cells (2.0 x 10^5 cells/well/mL) and [^177Lu]Lu-DOTA-PP-F11N (0.3 pmol/well) as radiolabeled reference (3 h, 37°C, RPMI 1640, 5 mM L-Gln, 5 mL non-essential amino acids (100x), 10% FCS + 5% BSA (v/v)).

Data set [3] concerns A431-CCK-2R tumor. The settings on record: mouse, in vivo, 1 h; cited from earlier work.

One may read the IC50 as the concentration at which inhibition is half-maximal.

Regarding `CCCC[C@@H](C(=O)N[C@@H](CC(=O)O)C(=O)N[C@@H](Cc1cccc2ccccc12)C(N)=O)N(C)C(=O)[C@H](Cc1c[nH]c2ccccc12)NC(=O)CNC(=O)[C@H](Cc1ccc(O)cc1)NC(=O)[C@H](C)NC(=O)[C@@H](CCC(=O)O)NC(=O)CN1CCN(CC(=O)O)CCN(CC(=O)O)CCN(CC(=O)O)CC1` [[^natLu]Lu-DOTA-MGS5, DOTA-D-Glu-Ala-Tyr-Gly-Trp-(N-Me)Nle-Asp-1-Nal-NH2, metal not drawn, reference compound], the logD7.4 result in data set [1] is listed as “− 2.21 ± 0.08”. Also, the IC50 in data set [2] amounted to 5.2 ± 0.8 nM.
As for “DOTA-D-Glu-Ala-Tyr-Gly-Trp-(N-Me)Nle-Asp-1-Nal-NH2 [[^68 Ga]Ga-DOTA-MGS5]”, in data set [3], the “activity levels in the tumor” value was 23.3 ± 4.7 %ID/g and the “activity uptake in the kidneys” value is listed as 5.7 ± 1.4 %ID/g.

The values above are taken from paper PMC10329608, “Investigation of the structure-activity relationship at the N-terminal part of minigastrin analogs” (EJNMMI Research, 2023).
